The source of these data is ChEMBL document CHEMBL5352476, “A comprehensive overview of Artemisinin and its derivatives as anticancer agents” (Eur J Med Chem, 2023).

As usually defined, the IC50 is the concentration that gives 50% inhibition.

For data set [1], the system named is HepG2. Nature of the data set: Antiproliferative activity against human HepG2 cells assessed as inhibition of cell growth incubated for 48 hrs by MTT assay. In kind it is functional, cell-based. To be noted: HepG2, 48 h. In general terms: Formazan colour is commonly taken as a measure of viable cells.
The subject of a further data set is HEK-293T. Nature of the data set: Antiproliferative activity against HEK293T cells assessed as inhibition of cell growth incubated for 48 hrs by MTT assay. The format is functional, cell-based. To be noted: Homo sapiens.
The test system of a further data set is Calu-1. The data set can be described thus: Antiproliferative activity against human Calu-1 cells assessed as inhibition of cell growth incubated for 48 hrs by MTT assay. In kind it is functional, cell-based. As to conditions: Calu-1, 48 h.
Another data set relates to 786-0. Nature of the data set: Antiproliferative activity against human 786-0 cells assessed as inhibition of cell growth incubated for 48 hrs by MTT assay. As to conditions: 786-0, 48 h. In kind it is functional, cell-based.
Another data set relates to SK-BR-3. The data set can be described thus: Antiproliferative activity against human SK-BR-3 cells assessed as inhibition of cell growth incubated for 48 hrs by MTT assay. The format is functional, cell-based. To be noted: SK-BR-3, 48 h.
For another data set, the system named is SK-OV-3. The data set can be described thus: Antiproliferative activity against human SK-OV-3 cells assessed as inhibition of cell growth incubated for 48 hrs by MTT assay. In kind it is functional, cell-based. To be noted: SK-OV-3, 48 h.
Data set [2] concerns HepG2. The data set can be described thus: Potency index, ratio of vincristine IC50 to test compound IC50 for antiproliferative activity against human HepG2 cells assessed as inhibition of cell growth incubated for 48 hrs by MTT assay. The format is functional.
Data set [3] can be described thus: Selectivity index, ratio of IC50 for antiproliferative activity against HEK293T cells to IC50 for antiproliferative activity against human HepG2 cells. As to conditions: HEK293T cells versus HepG2 cells, read-out: Ratio IC50. In kind it is toxicity, cell-based.
Data set [4] concerns HepG2. Nature of the data set: Antiproliferative activity against human HepG2 cells assessed as inhibition of cell growth by MTT assay. The format is functional, cell-based.
The next data set has as its system PC-12. The data set can be described thus: Antiproliferative activity against PC-12 cells assessed as inhibition of cell growth incubated for 72 hrs by MTT assay. In kind it is functional, cell-based. As to conditions: Rattus norvegicus, PC-12, 72 h.
The test system of the next data set is MCF7. The data set can be described thus: Antiproliferative activity against human MCF7 cells assessed as inhibition of cell growth incubated for 72 hrs by MTT assay. In kind it is functional, cell-based. To be noted: MCF7, 72 h.
For a further data set, the system named is SH-SY5Y. Nature of the data set: Antiproliferative activity against human SH-SY5Y cells assessed as inhibition of cell growth incubated for 72 hrs by MTT assay. The format is functional, cell-based.
The subject of another data set is U-87 MG. The data set can be described thus: Antiproliferative activity against human U-87 MG cells assessed as inhibition of cell growth incubated for 72 hrs by MTT assay. The format is functional, cell-based, U-87MG ATCC.
Data set [5] deals with A549. The data set can be described thus: Antiproliferative activity against human A549 cells assessed as inhibition of cell growth incubated for 72 hrs by MTT assay. In kind it is functional, cell-based. To be noted: A549, 72 h.
In the next data set the test system is U-118-MG. Nature of the data set: Antiproliferative activity against human U-118-MG cells assessed as inhibition of cell growth incubated for 72 hrs by MTT assay. In kind it is functional, cell-based.
Another data set has as its system HCT-116. Nature of the data set: Antiproliferative activity against human HCT-116 cells assessed as inhibition of cell growth incubated for 72 hrs by MTT assay. In kind it is functional, cell-based. As to conditions: HCT-116, 72 h.
Data set [6] can be described thus: Cytotoxicity against human L02 cells assessed as inhibition of cell growth incubated for 72 hrs by MTT assay. The format is toxicity, cell-based.
The subject of another data set is RPMI-7951. Nature of the data set: Antiproliferative activity against human RPMI-7951 cells assessed as inhibition of cell growth incubated for 24 hrs by MTT assay. In kind it is functional, cell-based. To be noted: RPMI-7951, 24 h.
Data set [7] relates to HT-29. The data set can be described thus: Antiproliferative activity against human HT-29 cells overexpressing carbonic anhydrase IX assessed as inhibition of cell growth incubated for 96 hrs under hypoxic condition by MTT assay. In kind it is functional, cell-based. As to conditions: HT-29, 96 h.
Data set [8] in a line: Cytotoxicity against human MCF-10A cells assessed as inhibition of cell growth incubated for 96 hrs by MTT assay. The format is toxicity, cell-based.
Data set [9] has as its system HT-29. The data set can be described thus: Antiproliferative activity against human HT-29 cells assessed as inhibition of cell growth incubated for 96 hrs by MTT assay. The format is functional, cell-based. As to conditions: HT-29, 96 h.
The subject of data set [10] is MDA-MB-231. The data set can be described thus: Antiproliferative activity against human MDA-MB-231 cells assessed as inhibition of cell growth incubated for 96 hrs by MTT assay. The format is functional, cell-based. As to conditions: MDA-MB-231, 96 h.
A further data set deals with HeLa. The data set can be described thus: Antiproliferative activity against human HeLa cells assessed as inhibition of cell growth incubated for 72 hrs by MTT assay. In kind it is functional, cell-based.
For data set [11], the system named is HT-29. The data set can be described thus: Antiproliferative activity against human HT-29 cells assessed as inhibition of cell growth incubated for 72 hrs by MTT assay. The format is functional, cell-based. To be noted: HT-29, 72 h.
The subject of a further data set is NCI-H460. The data set can be described thus: Antiproliferative activity against human NCI-H460 cells assessed as inhibition of cell growth incubated for 72 hrs by MTT assay. The format is functional, cell-based. As to conditions: NCI-H460, 72 h.
In data set [12] the test system is MDA-MB-231. The data set can be described thus: Antiproliferative activity against human MDA-MB-231 cells assessed as inhibition of cell growth incubated for 72 hrs by MTT assay. The format is functional, cell-based. As to conditions: MDA-MB-231, 72 h.
Data set [13] relates to A549. The data set can be described thus: Antiproliferative activity against human A549 cells assessed as inhibition of cell growth incubated for 96 hrs by MTT assay. The format is functional, cell-based. To be noted: A549, 96 h.
The test system of data set [14] is A549. Nature of the data set: Antitumor activity against human A549 cells xenografted in nude mouse assessed as tumor growth inhibition rate relative to control. In kind it is functional. (In general: Xenograft models place foreign cells or tissue in a host animal.)
Data set [15] is described as follows: Antiproliferative activity against mouse Lewis lung carcinoma cell line assessed as inhibition of cell growth incubated for 48 hrs by MTT assay. In kind it is functional, cell-based.

For the compound `C[C@H]1[C@H](N2CCN(P(=O)(OCc3cncs3)N(CCCCl)CCCCl)CC2)O[C@@H]2O[C@@]3(C)CC[C@H]4[C@H](C)CC[C@@H]1[C@@]24OO3` (stereo partly specified), the 50% inhibitory concentration (IC50) in the data set with HepG2 [1], with HEK-293T, with Calu-1, in the data set on 786-0, in the data set with SK-BR-3 and in the data set on SK-OV-3 was 12.5 µM throughout. Besides, the “Ratio IC50” value in the data set on HepG2 [2] was found to be 7.4. For the same compound, the selectivity ratio in data set [3] was 16.

Take `CCCCCCCCCCCCOC(=O)C[C@H]1O[C@@H]2O[C@@]3(C)CC[C@H]4[C@H](C)CC[C@@H]([C@H]1C)[C@@]24OO3`: the IC50 in the data set with HepG2 [4] came to 0.72 µM.

Consider `C[C@@H]1CC[C@H]2[C@@H](C)C(N3CCN(C(=O)Oc4ccc(SC(F)(F)F)cc4)CC3)O[C@@H]3O[C@@]4(C)CC[C@@H]1[C@]32OO4` (stereo partly specified), for which the 50% inhibitory concentration (IC50) with PC-12, in the data set with MCF7, in the data set on SH-SY5Y, in the data set on U-87 MG, in the data set with A549 [5] and with U-118-MG was no less than 0.12 µM in each case. In addition, in the data set on HCT-116, the IC50 was 0.12 µM. The 50% inhibitory concentration (IC50) at 72 h in [6] is 12.5 µM.

As to `CCCCCCCCNC(=O)C[C@H]1O[C@@H]2O[C@@]3(C)CC[C@H]4[C@H](C)CC[C@@H]([C@H]1C)[C@@]24OO3`, in the data set with HepG2 [4], the IC50 worked out at 9.5 µM.

As for `C[C@H]1[C@H](OC(=O)CCC(=O)NCCc2ccc(OC(=O)CCC(=O)O[C@@H]3O[C@@H]4O[C@@]5(C)CC[C@H]6[C@H](C)CC[C@@H]([C@H]3C)[C@@]46OO5)cc2)O[C@@H]2O[C@@]3(C)CC[C@H]4[C@H](C)CC[C@@H]1[C@@]24OO3`, in the data set on RPMI-7951, the IC50 is 2.45 µM.

On to `C[C@H]1[C@@H](OCCc2cn(-c3ccc(S(N)(=O)=O)cc3)nn2)O[C@@H]2O[C@@]3(C)CC[C@H]4[C@H](C)CC[C@@H]1[C@@]24OO3`, for which the 50% inhibitory concentration (IC50) with HT-29 [7] was 0.65 µM; in the data set on HT-29 [9] it was 1.92 µM; in the data set on MDA-MB-231 [10] it was 1.92 µM. The IC50 at 96 h in data set [8] worked out at 78 µM.

Take `COc1ccc(OC)c(/C=C/C(=O)c2ccc(OCC(=O)N[C@@H]3O[C@@H]4O[C@@]5(C)CC[C@H]6[C@H](C)CC[C@@H]([C@H]3C)[C@@]46OO5)cc2)c1`: the IC50 with HeLa, in the data set on HT-29 [11], in the data set with NCI-H460 and with MDA-MB-231 [12] was 0.19 µM throughout.

As for `CCCCCCCCCCCCC(=O)C[C@H]1O[C@@H]2O[C@@]3(C)CC[C@H]4[C@H](C)CC[C@@H]([C@H]1C)[C@@]24OO3`, the IC50 in the data set with HepG2 [4] stood at 1.4 µM.

For `COc1ccc(OC)c(/C=C/C(=O)c2ccc(OCC(=O)N[C@H]3O[C@@H]4O[C@@]5(C)CC[C@H]6[C@H](C)CC[C@@H]([C@H]3C)[C@@]46OO5)cc2)c1`, the 50% inhibitory concentration (IC50) in the data set on HeLa, in the data set on HT-29 [11], in the data set on NCI-H460 and in the data set on MDA-MB-231 [12] was 0.12 µM throughout.

`C[C@@H]1CC[C@H]2[C@@H](C)C(=O)O[C@@H]3O[C@@]4(C)CC[C@@H]1[C@]32OO4` [ARTEMISININ]: the IC50 with HepG2 [4] worked out at 97 µM.

For `C[C@H]1[C@@H](O)O[C@@H]2O[C@@]3(C)CC[C@H]4[C@H](C)CC[C@@H]1[C@@]24OO3` [ARTENIMOL], the half-maximal inhibitory concentration (IC50) in the data set on A549 [13] came out at 0.23 µM; in data set [15], 53.1 µM. Further, in the data set with A549 [14], the “inhibition (INH)” value was determined as 54.3%.
